Measurements reported in US20070128217A1 (priority 2003, published 2007).

What was measured:
[1] = tested on: antibodies in sera from SARS patients (sera 1a, 1b, 2, 6, 37, 62, London, SARS-yellow, SARS-green); format: binding, human; design: Binding of serum 6 to linear peptides of protein X1 of SARS-CoV Urbani / Binding of serum 37 to linear peptides of protein X1 of SARS-CoV Urbani / Binding of serum 6 to looped/cyclic peptide (PEPSCAN-ELISA) / Binding of serum 37 to looped/cyclic peptide (PEPSCAN-ELISA) / Binding of serum 37 to looped/cyclic peptides of protein X1 of SARS-CoV Urbani / Binding of serum 6 to linear peptides of protein X2 / Binding of serum 37 to linear peptides of protein X2 / Binding of serum 37 to looped/cyclic peptides of protein X2 of SARS-CoV Urbani / Binding of serum 6 to linear peptides of protein M of SARS-CoV Urbani / Binding of serum 37 to linear peptides of protein M of SARS-CoV Urbani / Binding of serum 6 to looped/cyclic peptides of protein M of SARS-CoV Urbani / Binding of serum 37 to looped/cyclic peptides of protein M of SARS-CoV Urbani / Binding of serum 6 to linear peptides of protein X3 of SARS-CoV Urbani / Binding of serum 37 to linear peptides of protein X3 of SARS-CoV Urbani / Binding of serum 37 to looped/cyclic peptides of protein X3 of SARS-CoV Urbani / Binding of serum 6 to linear peptides of protein X4 of SARS-CoV Urbani / Binding of serum 37 to linear peptides of protein X4 of SARS-CoV Urbani / Binding of serum 37 to looped/cyclic peptides of protein X4 of SARS-CoV Urbani / Binding of serum 6 to linear peptides of protein X5 of SARS-CoV Urbani / Binding of serum 37 to linear peptides of protein X5 of SARS-CoV Urbani / Binding of serum 37 to looped/cyclic peptides of protein X5 of SARS-CoV Urbani / Binding of serum 6 to linear peptides of protein N of SARS-CoV Urbani / Binding of serum 37 to linear peptides of protein N of SARS-CoV Urbani / Binding of serum 6 to linear peptide (PEPSCAN-ELISA) / Binding of serum 1a to looped/cyclic peptides of protein N of SARS-CoV Urbani / Binding of serum 1b to looped/cyclic peptides of protein N of SARS-CoV Urbani / Binding of serum 2 to looped/cyclic peptides of protein N of SARS-CoV Urbani / Binding of serum 6 to looped/cyclic peptides of protein N of SARS-CoV Urbani / Binding of serum 37 to looped/cyclic peptides of protein N of SARS-CoV Urbani / Binding of serum 62 to looped/cyclic peptides of protein N of SARS-CoV Urbani / Binding of serum London to looped/cyclic peptides of protein N of SARS-CoV Urbani / Binding of serum SARS-green to looped/cyclic peptides of protein N of SARS-CoV Urbani: unit not given here
[2] = tested on: control sera (pooled serum of ten healthy LUMC hospital workers; commercial negative donor pooled serum from the Dutch bloodbank); format: binding, human; design: Binding of Control serum LUMC to linear peptides / Binding of Control serum Blood-bank to linear peptides / Binding of Control serum LUMC to looped peptides / Binding of Control Serum Blood-Bank to Looped peptides / Binding of Control serum LUMC to linear peptides of the protein M of SARS-CoV Urbani / Binding of Control serum Blood-bank to linear peptides of the protein M of SARS-CoV Urbani / Binding of Control serum LUMC to looped peptides of the protein M of SARS-CoV Urbani / Binding of Control Serum Blood-Bank to Looped peptides of the protein M of SARS-CoV Urbani: unit not given here
[3] = tested on: rabbit serum obtained by immunizing a rabbit with the SARS-CoV strain Frankfurt 1; format: binding; design: Binding of a rabbit serum to linear peptides / Binding of a rabbit serum to looped peptides / Rabbit serum linear peptides / Rabbit serum looped peptides / Binding of a rabbit serum to linear peptides of protein N of SARS-CoV Urbani (Rabbit serum linear peptides) / Binding of a rabbit serum to looped/cyclic peptides of protein N of SARS-CoV Urbani (Rabbit serum looped peptides): unit not given here
[4] = tested on: recombinant human anti-SARS-CoV antibody 03-018; format: binding; design: Binding of antibody 03-018 to linear peptides of the N protein of SARS-CoV Urbani / Binding of antibody 03-018 to looped/cyclic peptides of the N protein of SARS-CoV Urbani: unit not given here

Row | Sequence | Binding of serum 1a to linear peptides of protein N of SARS-CoV Urbani [1] | Binding of serum 1a to looped/cyclic peptides of protein N of SARS-CoV Urbani [1] | Binding of serum 1b to linear peptides of protein N of SARS-CoV Urbani [1] | Binding of serum 1b to looped/cyclic peptides of protein N of SARS-CoV Urbani [1] | Binding of serum 2 to linear peptides of protein N of SARS-CoV Urbani [1] | Binding of serum 2 to looped/cyclic peptides of protein N of SARS-CoV Urbani [1] | Binding of serum 6 to linear peptides of protein N of SARS-CoV Urbani [1] | Binding of serum 6 to looped/cyclic peptides of protein N of SARS-CoV Urbani [1] | Binding of serum 37 to linear peptides of protein N of SARS-CoV Urbani [1] | Binding of serum 37 to looped/cyclic peptides of protein N of SARS-CoV Urbani [1] | Binding of serum 62 to linear peptides of protein N of SARS-CoV Urbani [1] | Binding of serum 62 to looped/cyclic peptides of protein N of SARS-CoV Urbani [1] | Binding of serum London to linear peptides of protein N of SARS-CoV Urbani [1] | Binding of serum London to looped/cyclic peptides of protein N of SARS-CoV Urbani [1] | Binding of serum SARS-green to linear peptides of protein N of SARS-CoV Urbani [1] | Binding of serum SARS-green to looped/cyclic peptides of protein N of SARS-CoV Urbani [1] | Binding of serum SARS-yellow to linear peptides of protein N of SARS-CoV Urbani [1] | Binding of serum SARS-yellow to looped/cyclic peptides of protein N of SARS-CoV Urbani [1] | Binding of Control Serum Blood-Bank to Looped peptides [2] | Binding of Control serum Blood-bank to linear peptides [2] | further results
1 | GALNTPKDHIGTRNP | 0.3 | 0.2 | 0.1 | 0.1 | 0.2 | 0.5 | 0.2 | 0.2 | 0.7 | 0.5 | 0.7 | 0.3 | 0.5 | 0.4 | 0.4 | 0.2 | 0.7 | 0.2 | 0.5 | 0.7 | Binding of Control serum LUMC to linear peptides [2]: 0.6; Binding of Control serum LUMC to looped peptides [2]: 0.4; Binding of a rabbit serum to linear peptides of protein N of SARS-CoV Urbani (Rabbit serum linear peptides) [3]: 0.2; Binding of a rabbit serum to looped/cyclic peptides of protein N of SARS-CoV Urbani (Rabbit serum looped peptides) [3]: 0.0; Binding of antibody 03-018 to linear peptides of the N protein of SARS-CoV Urbani [4]: 0.1; Binding of antibody 03-018 to looped/cyclic peptides of the N protein of SARS-CoV Urbani [4]: 0.2
2 | DNGPQSNQRSAPRIT | 0.2 | 0.2 | 0.1 | 0.1 | 0.3 | 0.1 | 0.2 | 0.2 | 0.6 | 0.5 | 0.5 | 0.3 | 0.4 | 0.2 | 0.4 | 0.2 | 0.5 | 0.1 | 0.5 | 0.7 | Binding of Control serum LUMC to linear peptides [2]: 0.7; Binding of Control serum LUMC to looped peptides [2]: 0.4; Binding of a rabbit serum to linear peptides of protein N of SARS-CoV Urbani (Rabbit serum linear peptides) [3]: 0.1; Binding of a rabbit serum to looped/cyclic peptides of protein N of SARS-CoV Urbani (Rabbit serum looped peptides) [3]: 0.3; Binding of antibody 03-018 to linear peptides of the N protein of SARS-CoV Urbani [4]: 0.2; Binding of antibody 03-018 to looped/cyclic peptides of the N protein of SARS-CoV Urbani [4]: 0.3
